In article PMC3079779 (Toxicology and applied pharmacology, 2011):
Entries after “also recorded” stand apart in the source; their conditions may differ. Like-named read-outs stand apart in the source and are kept apart here.

Legend:
hERG channel [1] = target: T1, hERG channel (Homo sapiens, UniProt Q12809); test: FluxOR thallium influx assay in hERG transduced U-2 OS cells; conditions: for Confirmation Efficacy (inhibition of thallium influx as a % of positive control): confirmation study, hERG transduced cells, mean ± SD of three experiments; for IC50 in the thallium influx assay (QAC series follow-up): quaternary ammonium compound series and digitonin control, hERG cells
T1 sequence (Q12809 whole entry): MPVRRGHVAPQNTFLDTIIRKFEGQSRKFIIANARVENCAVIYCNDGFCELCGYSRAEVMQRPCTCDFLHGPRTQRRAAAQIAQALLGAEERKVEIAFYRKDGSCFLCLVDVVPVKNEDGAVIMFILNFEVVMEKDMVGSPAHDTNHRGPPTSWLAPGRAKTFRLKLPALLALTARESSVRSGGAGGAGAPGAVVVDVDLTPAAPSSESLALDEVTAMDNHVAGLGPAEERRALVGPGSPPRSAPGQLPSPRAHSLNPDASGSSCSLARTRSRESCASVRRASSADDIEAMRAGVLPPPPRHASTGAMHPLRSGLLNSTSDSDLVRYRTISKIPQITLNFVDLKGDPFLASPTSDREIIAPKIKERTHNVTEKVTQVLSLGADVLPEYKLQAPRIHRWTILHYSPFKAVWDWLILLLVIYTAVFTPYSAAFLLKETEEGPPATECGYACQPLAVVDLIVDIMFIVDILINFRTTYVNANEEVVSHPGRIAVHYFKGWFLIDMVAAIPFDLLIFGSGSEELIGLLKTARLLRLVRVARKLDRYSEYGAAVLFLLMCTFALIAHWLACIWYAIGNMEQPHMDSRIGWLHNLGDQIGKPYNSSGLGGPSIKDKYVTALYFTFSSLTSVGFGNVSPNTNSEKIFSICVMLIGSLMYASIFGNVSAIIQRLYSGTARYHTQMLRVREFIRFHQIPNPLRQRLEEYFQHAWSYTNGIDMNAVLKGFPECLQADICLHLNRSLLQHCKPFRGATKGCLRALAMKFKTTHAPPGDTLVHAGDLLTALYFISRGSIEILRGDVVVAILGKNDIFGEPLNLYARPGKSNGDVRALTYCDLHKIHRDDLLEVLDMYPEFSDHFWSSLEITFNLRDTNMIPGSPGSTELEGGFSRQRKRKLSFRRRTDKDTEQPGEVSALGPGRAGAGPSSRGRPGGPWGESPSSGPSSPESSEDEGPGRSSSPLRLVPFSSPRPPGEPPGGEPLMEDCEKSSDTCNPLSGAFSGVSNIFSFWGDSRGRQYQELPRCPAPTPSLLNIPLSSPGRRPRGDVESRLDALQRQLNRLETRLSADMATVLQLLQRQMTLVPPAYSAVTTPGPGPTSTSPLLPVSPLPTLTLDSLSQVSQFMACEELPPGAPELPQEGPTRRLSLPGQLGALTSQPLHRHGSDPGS

KV1.3 versus hERG [2] = target: T2, KV1.3 versus hERG (Homo sapiens, UniProt P22001); test: in vitro
T2 sequence (P22001 whole entry): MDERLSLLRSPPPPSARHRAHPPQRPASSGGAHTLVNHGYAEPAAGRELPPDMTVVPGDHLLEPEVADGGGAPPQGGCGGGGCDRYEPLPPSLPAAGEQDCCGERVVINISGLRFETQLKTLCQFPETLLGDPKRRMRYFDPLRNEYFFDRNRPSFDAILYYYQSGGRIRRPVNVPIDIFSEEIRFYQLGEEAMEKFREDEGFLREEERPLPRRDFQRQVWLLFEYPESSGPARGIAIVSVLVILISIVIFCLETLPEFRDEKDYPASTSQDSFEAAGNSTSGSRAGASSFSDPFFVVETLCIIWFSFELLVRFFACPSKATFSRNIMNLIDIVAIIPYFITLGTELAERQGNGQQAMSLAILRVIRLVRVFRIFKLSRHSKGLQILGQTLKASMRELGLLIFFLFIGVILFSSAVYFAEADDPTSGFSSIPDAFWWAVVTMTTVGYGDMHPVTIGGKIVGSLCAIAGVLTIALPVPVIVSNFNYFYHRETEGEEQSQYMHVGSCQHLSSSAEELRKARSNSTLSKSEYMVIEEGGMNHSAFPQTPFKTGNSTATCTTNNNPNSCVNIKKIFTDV

hERG channel [3] = target: T1, hERG channel; test: Automated whole cell patch clamp, hERG tail current in hERG CHO-K1 cells
[4] = target: human KV1.3 voltage gated K+ channel (Homo sapiens, UniProt P22001); test: KV1.3 thallium influx assay in KV1.3 stably transfected CHO DUKX cells; conditions: for Selectivity Fold (hERG over KV1.3): potency difference KV1.3 IC50 / hERG IC50, thallium influx assays; for KV 1.3 IC50 / KV 1.3 Efficacy (inhibition of thallium influx as a % of positive control): thallium influx in KV1.3 cells; for KV 1.3 IC50: mean ± SD from two to three experiments; for KV 1.3 Efficacy (inhibition of thallium influx as a % of positive control): relative to 1 μM psoralen
human KV1.3 voltage gated K+ channel, sequence (P22001 whole entry): as above

hERG channel [5] = target: T1, hERG channel
[6] = tested on: hERG transduced U-2 OS cells; test: in vitro; assay type: cell-based, human; conditions: for IC50: read-out: Cytotoxicity IC50 (cell viability, intracellular ATP content), up to 92 μM
KV1.3 versus hERG [7] = target: T2, KV1.3 versus hERG; test: KV1.3 thallium influx assay in KV1.3 stably transfected CHO DUKX cells; conditions: human
wild type U-2 OS cells = test: FluxOR thallium influx assay in wild type; assay type: cell-based, human; conditions: non-hERG transduced cells
in vitro = assay type: cell-based, human; conditions: human, hERG transduced U-2 OS cells
hERG channel [8] = target: T1, hERG channel; remark: listed apart in the source
[9] = 30-minute treatment, hERG transduced U-2 OS cells
[10] = read-out: Patch clamp IC50, automated whole cell patch clamp, hERG tail current, hERG CHO-K1 cells, room temperature
[11] = automated whole cell patch clamp, hERG tail current, hERG CHO-K1 cells, room temperature

Compound: Clc1ccc(C(c2ccccc2Cl)C(Cl)(Cl)Cl)cc1 (stereo not drawn) [o,p′-DDT, 1,1,1-trichloro-2-(2-chlorophenyl)-2-(4-chlorophenyl)ethane]
- Confirmation Efficacy (inhibition of thallium influx as a % of positive control) (hERG channel [1]): 58 ± 8%
- selectivity ratio (KV1.3 versus hERG [2]): 1.6
- IC50 (hERG channel [3]): 2.6 µM
- IC50 [4]: 35 µM
- Selectivity Fold (hERG over KV1.3) [4]: no selectivity
- KV 1.3 IC50 [4]: either IC50 values >30 μM or were inactive
- KV 1.3 Efficacy (inhibition of thallium influx as a % of positive control) [4]: 61%
- qHTS (two runs) Efficacy (inhibition of thallium influx as a % of positive control) (hERG channel [5]; human): 56 ± 2%

Compound: Clc1ccc(COC(Cn2ccnc2)c2ccc(Cl)cc2Cl)cc1 (stereo not drawn) [econazole nitrate, reference compound]
- IC50 [4]: 30 ± 2 µM
- KV 1.3 Efficacy (inhibition of thallium influx as a % of positive control) [4]: 104 ± 10%

Compound: CN(C)c1ccc(C(=C2C=CC(=[N+](C)C)C=C2)c2ccccc2)cc1.CN(C)c1ccc(C(=C2C=CC(=[N+](C)C)C=C2)c2ccccc2)cc1.O=C(O)C(=O)O.O=C([O-])C(=O)O.O=C([O-])C(=O)O [malachite green oxalate]
- Confirmation Efficacy (inhibition of thallium influx as a % of positive control) (hERG channel [1]): 108 ± 7%
- Maximum inhibition of cell viability [6]: 72%
- IC50 [6, 9]: 31 µM
- IC50 (hERG channel [3]; [10]): 1.9 µM
- Selectivity Fold (hERG over KV1.3) [4]: 6.5 fold
- KV 1.3 IC50 [4]: either IC50 values >30 μM or were inactive
- KV 1.3 Efficacy (inhibition of thallium influx as a % of positive control) [4]: 89%
- qHTS (two runs) Efficacy (inhibition of thallium influx as a % of positive control) (hERG channel [5]): 97 ± 3%

Compound: C=C[C@H]1C[N@@]2CC[C@H]1C[C@@H]2[C@@H](O)c1ccnc2ccc(OC)cc12 [quinidine, reference compound]
- KV 1.3 IC50 [4]: either IC50 values >30 μM or were inactive; also recorded: Inactive

Compound: C[N+](C)(C)Cc1ccccc1 [benzyltrimethylammonium chloride]
- IC50 in the thallium influx assay (QAC series follow-up) (hERG channel [1]): inactive
- Patch clamp IC50 (hERG channel [3]; [11]): inactive

Compound: COC(=O)[C@H]1[C@H]2C[C@@H]3c4[nH]c5cc(OC)ccc5c4CCN3C[C@H]2C[C@@H](OC(=O)c2cc(OC)c(OC)c(OC)c2)[C@@H]1OC [reserpine, reference compound]
- IC50 (hERG channel [1]; Confirmation IC50 (thallium influx, hERG)): 4.9 ± 1.7 µM
- IC50 (hERG channel [1]; qHTS (two runs) IC50): 7.5 ± 3.5 µM
- IC50 (hERG channel [3]): 1.9 µM
- IC50 [4]: 58 ± 18 µM
- KV 1.3 IC50 [4]: either IC50 values >30 μM or were inactive
- KV 1.3 Efficacy (inhibition of thallium influx as a % of positive control) [4]: 78 ± 7%
- selectivity ratio at 2 min (KV1.3 versus hERG [7]): 11.8

Compound: COc1ccc(CCN(C)CCCC(C#N)(c2ccc(OC)c(OC)c2)C(C)C)cc1OC (stereo not drawn) [verapamil, reference compound]
- KV 1.3 Efficacy (inhibition of thallium influx as a % of positive control) [4]: 88 ± 12%

Compound: Nc1ccc2cc3ccccc3cc2c1 [2-aminoanthracene]
- Confirmation Efficacy (inhibition of thallium influx as a % of positive control) (hERG channel [1]): 67 ± 19%
- IC50 (hERG channel [3]): > 100 µM
- Inhibition of thallium influx in parental (wild type) cells (wild type U-2 OS cells): inhibitory effect
- qHTS (two runs) Efficacy (inhibition of thallium influx as a % of positive control) (hERG channel [5]; human): 61 ± 3%

Compound: CCCCCCCC[N+](CCCCCCCC)(CCCCCCCC)CCCCCCCC.[Br-] [tetra-n-octylammonium bromide]
- Confirmation Efficacy (inhibition of thallium influx as a % of positive control) (hERG channel [1]): 100 ± 3%
- Maximum inhibition of cell viability [6, 9]: 50%
- IC50 [6, 9]: 34 µM
- IC50 (hERG channel [3]; read-out: IC50 in the patch clamp assay, as stated in abstract): 0.08 µM
- IC50 (hERG channel [3]; [10]): 0.082 µM
- Selectivity Fold (hERG over KV1.3) [4]: 42 fold
- KV 1.3 Efficacy (inhibition of thallium influx as a % of positive control) [4]: 72 ± 16%
- qHTS (two runs) Efficacy (inhibition of thallium influx as a % of positive control) (hERG channel [5]): 102 ± 4%

Compound: C[N+](C)(C)CCCCCCCCCC[N+](C)(C)C [decamethonium dibromide]
- IC50 in the thallium influx assay (QAC series follow-up) (hERG channel [1]): inactive
- Patch clamp IC50 (hERG channel [3]; [11]): inactive

Compound: trixylenyl phosphate
- Confirmation Efficacy (inhibition of thallium influx as a % of positive control) (hERG channel [1]): 43 ± 15%
- Patch clamp IC50 (hERG channel [3]; [11]): did not inhibit hERG channel activity
- IC50 (hERG channel [3]; [10]): > 100 µM
- qHTS (two runs) Efficacy (inhibition of thallium influx as a % of positive control) (hERG channel [5]): 67 ± 12%

Compound: N=C(Nc1ccccc1)Nc1ccccc1 [1,3-diphenylguanidine]
- KV 1.3 IC50 [4]: Inactive

Compound: CCCCCCc1ccc(-c2ccc(C#N)cc2)cc1 [4-N-hexyl-4′-cyanobiphenyl, 4′-N-hexyl-4-biphenylcarbonitrile]
- Confirmation IC50 (thallium influx, hERG) (hERG channel [5]): Inactive
- IC50 (hERG channel [5]): 8.2 ± 2.6 µM

Compound: CCCCCCCCCCCC[N+](C)(C)CCOc1ccccc1 [domiphen bromide]
- Maximum inhibition of cell viability [6, 9]: 33%
- IC50 at 30 min (in vitro): 65 µM
- IC50 (hERG channel [3]): 1.5 µM
- IC50 [4]: 5.2 ± 0.6 µM
- Selectivity Fold (hERG over KV1.3) [4]: no selectivity
- KV 1.3 Efficacy (inhibition of thallium influx as a % of positive control) [4]: 102 ± 22%
- selectivity ratio at 2 min (KV1.3 versus hERG [7]): 1.2

Compound: O=C([O-])c1c(Cl)c(Cl)c(Cl)c(Cl)c1-c1c2cc(Br)c(=O)c(Br)c-2oc2c(Br)c([O-])c(Br)cc12.[Na+].[Na+] [D&C red dye 27]
- IC50 (hERG channel [8]): > 100 µM
- Inhibition of thallium influx in parental (wild type) cells (wild type U-2 OS cells): inhibitory effect
- Confirmation Efficacy (inhibition of thallium influx as a % of positive control) (hERG channel [5]): 173 ± 41%

Compound: tricresyl phosphate
- Confirmation Efficacy (inhibition of thallium influx as a % of positive control) (hERG channel [1]): 68 ± 16%
- IC50 (hERG channel [3]; [10]): 8.8 µM
- Selectivity Fold (hERG over KV1.3) [4]: 2.7 fold
- KV 1.3 Efficacy (inhibition of thallium influx as a % of positive control) [4]: 68 ± 17%
- qHTS (two runs) Efficacy (inhibition of thallium influx as a % of positive control) (hERG channel [5]): 82 ± 11%

Compound: C[C@@H]1CC[C@@]2(OC1)O[C@H]1[C@@H](O)[C@H]3[C@@H]4CC[C@H]5C[C@@H](O[C@@H]6O[C@H](CO)[C@H](O[C@@H]7O[C@H](CO)[C@@H](O)[C@H](O[C@@H]8OC[C@@H](O)[C@H](O)[C@H]8O)[C@H]7O[C@@H]7O[C@H](CO)[C@H](O)[C@H](O[C@@H]8O[C@H](CO)[C@@H](O)[C@H](O)[C@H]8O)[C@H]7O)[C@H](O)[C@H]6O)[C@H](O)C[C@]5(C)[C@H]4CC[C@]3(C)[C@H]1[C@@H]2C [digitonin, reference compound]
- Inhibitory effect on hERG channel activity in the patch clamp experiment (hERG channel [3]; at 1 μM (the highest noncytotoxic concentration)): no inhibitory effect
